Results as given in ChEMBL document CHEMBL2074115, “Anthracyclines modulate multidrug resistance protein (MRP) mediated organic anion transport” (Biochim Biophys Acta, 1997).
Structures can show the parent of a compound that is named as a salt. Blank lines part the entries; values can stand above or below the molecule they belong to.

How the values were obtained:
Set-up in all cases: scale not given: the % may be the effect or the level left
[1] = target: T1, Multidrug resistance-associated protein 1 (Homo sapiens, UniProt P33527); test: TP_TRANSPORTER: inhibition of DNP-SG uptake (DNP-SG: 0.01 uM, TLCAS: 10 uM) in membrane vesicles from GLC4/ADR cells; assay type: functional, cell membranes, Membrane vesicle; conditions: glc-4/adr
[2] = target: T2, Multidrug resistance-associated protein 1 (MRP1) (Homo sapiens, UniProt P33527); test: TP_TRANSPORTER: inhibition of DNP-SG uptake (DNP-SG: 0.01 uM, Calcein-AM: 10 uM) in membrane vesicles from GLC4/ADR cells; assay type: functional, cell membranes, GLC-4/ADR, Membrane vesicle; conditions: probe DNP-SG, read-out: Activity
[3] = target: T2, Multidrug resistance-associated protein 1 (MRP1); test: TP_TRANSPORTER: inhibition of DNP-SG uptake (DNP-SG: 0.01 uM, VP-16: 10 uM) in membrane vesicles from GLC4/ADR cells; assay type: functional, cell membranes, GLC-4/ADR, Membrane vesicle; conditions: probe DNP-SG, read-out: Activity
[4] = target: T2, Multidrug resistance-associated protein 1 (MRP1); test: TP_TRANSPORTER: inhibition of DNP-SG uptake (DNP-SG: 0.01 uM, Idarbicin: 10 uM) in membrane vesicles from GLC4/ADR cells; assay type: functional, cell membranes, GLC-4/ADR, Membrane vesicle; conditions: probe DNP-SG, read-out: Activity
[5] = target: T1, Multidrug resistance-associated protein 1; test: TP_TRANSPORTER: inhibition of DNP-SG uptake (DNP-SG: 0.01 uM, ICG: 10 uM) in membrane vesicles from GLC4/ADR cells; assay type: functional, cell membranes, Membrane vesicle; conditions: glc-4/adr
[6] = target: T2, Multidrug resistance-associated protein 1 (MRP1); test: TP_TRANSPORTER: inhibition of DNP-SG uptake (DNP-SG: 0.01 uM, MTX: 10 uM) in membrane vesicles from GLC4/ADR cells; assay type: functional, cell membranes, GLC-4/ADR, Membrane vesicle; conditions: probe DNP-SG, read-out: Activity
[7] = target: T2, Multidrug resistance-associated protein 1 (MRP1); test: TP_TRANSPORTER: inhibition of DNP-SG uptake (DNP-SG: 0.01 uM, Calcein: 500 uM) in membrane vesicles from GLC4/ADR cells; assay type: functional, cell membranes, GLC-4/ADR, Membrane vesicle; conditions: probe DNP-SG, read-out: Activity
[8] = target: T1, Multidrug resistance-associated protein 1; test: TP_TRANSPORTER: inhibition of DNP-SG uptake (DNP-SG: 0.01 uM, Taxol: 10 uM) in membrane vesicles from GLC4/ADR cells; assay type: functional, cell membranes, Membrane vesicle; conditions: glc-4/adr
[9] = target: T2, Multidrug resistance-associated protein 1 (MRP1); test: TP_TRANSPORTER: inhibition of DNP-SG uptake (DNP-SG: 0.01 uM, TCAS: 10 uM) in membrane vesicles from GLC4/ADR cells; assay type: functional, cell membranes, GLC-4/ADR, Membrane vesicle; conditions: probe DNP-SG, read-out: Activity
[10] = target: T2, Multidrug resistance-associated protein 1 (MRP1); test: TP_TRANSPORTER: inhibition of DNP-SG uptake (DNP-SG: 0.01 uM, TLC: 10 uM) in membrane vesicles from GLC4/ADR cells; assay type: functional, cell membranes, GLC-4/ADR, Membrane vesicle; conditions: probe DNP-SG, read-out: Activity

T2 sequence (P33527 whole entry): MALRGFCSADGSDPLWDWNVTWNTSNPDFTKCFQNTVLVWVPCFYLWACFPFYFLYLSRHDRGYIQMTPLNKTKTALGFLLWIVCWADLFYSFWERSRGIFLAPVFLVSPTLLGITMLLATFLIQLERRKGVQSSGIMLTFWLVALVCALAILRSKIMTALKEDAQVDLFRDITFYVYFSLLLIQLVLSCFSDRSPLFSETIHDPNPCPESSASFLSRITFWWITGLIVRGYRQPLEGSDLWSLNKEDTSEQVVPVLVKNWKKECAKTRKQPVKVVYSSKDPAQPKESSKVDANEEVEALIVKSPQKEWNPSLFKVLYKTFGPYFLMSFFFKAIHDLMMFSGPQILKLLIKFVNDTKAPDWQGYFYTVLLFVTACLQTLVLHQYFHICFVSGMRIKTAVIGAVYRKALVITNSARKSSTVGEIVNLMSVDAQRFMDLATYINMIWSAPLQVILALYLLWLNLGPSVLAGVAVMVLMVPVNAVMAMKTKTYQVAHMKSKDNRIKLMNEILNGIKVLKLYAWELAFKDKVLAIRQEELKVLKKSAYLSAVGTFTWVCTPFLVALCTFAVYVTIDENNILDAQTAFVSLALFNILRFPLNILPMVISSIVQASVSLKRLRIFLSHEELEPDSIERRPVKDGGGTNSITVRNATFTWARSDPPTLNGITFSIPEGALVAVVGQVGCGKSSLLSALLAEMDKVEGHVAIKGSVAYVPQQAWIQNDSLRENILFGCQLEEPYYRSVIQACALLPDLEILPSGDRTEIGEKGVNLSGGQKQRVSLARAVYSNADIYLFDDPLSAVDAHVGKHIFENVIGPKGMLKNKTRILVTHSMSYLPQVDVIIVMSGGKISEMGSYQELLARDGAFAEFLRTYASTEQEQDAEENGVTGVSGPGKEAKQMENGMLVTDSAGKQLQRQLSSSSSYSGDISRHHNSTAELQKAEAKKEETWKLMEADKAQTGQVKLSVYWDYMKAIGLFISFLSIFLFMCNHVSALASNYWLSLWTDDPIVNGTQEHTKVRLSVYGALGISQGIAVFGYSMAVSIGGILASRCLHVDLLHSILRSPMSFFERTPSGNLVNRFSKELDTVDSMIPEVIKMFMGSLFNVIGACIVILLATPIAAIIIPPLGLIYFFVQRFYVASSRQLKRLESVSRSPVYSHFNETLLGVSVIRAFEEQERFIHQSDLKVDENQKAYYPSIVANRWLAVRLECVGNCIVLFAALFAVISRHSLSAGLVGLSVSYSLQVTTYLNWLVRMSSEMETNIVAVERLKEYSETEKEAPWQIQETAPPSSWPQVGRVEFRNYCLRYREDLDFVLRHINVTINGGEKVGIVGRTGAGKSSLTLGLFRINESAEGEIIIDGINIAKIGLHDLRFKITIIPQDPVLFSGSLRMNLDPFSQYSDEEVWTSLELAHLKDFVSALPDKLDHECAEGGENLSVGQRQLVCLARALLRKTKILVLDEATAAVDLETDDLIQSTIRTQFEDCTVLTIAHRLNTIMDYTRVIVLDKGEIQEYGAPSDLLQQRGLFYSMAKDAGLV
T1 sequence (P33527 whole entry): as above

SMILES: C[C@H](CCC(=O)NCCS(=O)(=O)O)C1CC[C@H]2[C@@H]3CC[C@@H]4C[C@H](OS(=O)(=O)O)CC[C@]4(C)[C@H]3CC[C@]12C (stereo not given in full)
Activity [1]: 11%

SMILES: CC(=O)OCOC(=O)CN(CC(=O)OCOC(C)=O)Cc1c(OC(C)=O)ccc2c1Oc1c(ccc(OC(C)=O)c1CN(CC(=O)OCOC(C)=O)CC(=O)OCOC(C)=O)C21OC(=O)c2ccccc21
activity at 10 µM [2]: 44%

SMILES: COc1cc([C@@H]2c3cc4c(cc3[C@@H](O[C@@H]3O[C@@H]5CO[C@@H](C)O[C@H]5[C@H](O)[C@H]3O)[C@H]3COC(=O)[C@H]23)OCO4)cc(OC)c1O [ETOPOSIDE]
activity at 10 µM [3]: 50%

SMILES: CC(=O)[C@]1(O)Cc2c(O)c3c(c(O)c2[C@@H](O[C@H]2C[C@H](N)[C@H](O)[C@H](C)O2)C1)C(=O)c1ccccc1C3=O [IDARUBICIN]
activity at 10 µM [4]: 52%

SMILES: CC1(C)C(/C=C/C=C/C=C/C=C2/N(CCCCS(=O)(=O)[O-])c3ccc4ccccc4c3C2(C)C)=[N+](CCCCS(=O)(=O)[O-])c2ccc3ccccc3c21.[Na+] [INDOCYANINE GREEN]
Activity [5]: 34%

SMILES: C[C@H](CCC(=O)NCCS(=O)(=O)O)C1CC[C@H]2[C@@H]3[C@H](O)C[C@@H]4C[C@H](OS(=O)(=O)O)CC[C@]4(C)[C@H]3C[C@H](O)[C@]12C (stereo not given in full) [TAUROCHOLATE SULFATE]
activity at 10 µM [9]: 76%

Results, then the molecule that gave them:

activity at 10 µM [6]: 82%
SMILES: CN(Cc1cnc2nc(N)nc(N)c2n1)c1ccc(C(=O)N[C@@H](CCC(=O)O)C(=O)O)cc1 [METHOTREXATE]

activity at 500 µM [7]: 40%
SMILES: O=C(O)CN(CC(=O)O)Cc1cc2c(cc1O)Oc1cc(O)c(CN(CC(=O)O)CC(=O)O)cc1C21OC(=O)c2ccccc21 [OFTASCEINE]

Activity [8]: 66%
SMILES: CC(=O)O[C@H]1C(=O)[C@@]2(C)[C@H]([C@H](OC(=O)c3ccccc3)[C@]3(O)C[C@H](OC(=O)[C@H](O)[C@@H](NC(=O)c4ccccc4)c4ccccc4)C(C)=C1C3(C)C)[C@]1(OC(C)=O)CO[C@@H]1C[C@@H]2O [PACLITAXEL]

activity at 10 µM [10]: 56%
SMILES: C[C@H](CCC(=O)NCCS(=O)(=O)O)[C@H]1CC[C@H]2[C@@H]3CC[C@@H]4C[C@H](O)CC[C@]4(C)[C@H]3CC[C@]12C [TAUROLITHOCHOLIC ACID]
